Results from US8754209B2, “Indazole derivatives or pharmaceutically acceptable salts thereof as protein kinase inhibitors for proliferative diseases treatment, and a pharmaceutical composition containing the same as an active ingredient” (Korea Institute of Science and Technology, priority 2009, dated 2014).

Test system: A375P cells
Experiment: Anti-proliferative activity on A375P cell line (MTT assay)
Format: cell-based
Settings: A375P human melanoma cell line
Procedure: A375P cells were purchased from American Type Culture Collection (ATCC, Rockville, Md., US) and maintained in DMEM medium (Welgene, Daegu, Korea) supplemented with 10% FBS (Welgene) and 1% penicillin/streptomycin (Welgene) in a humidified atmosphere with 5% CO2 at 37° C. The A375P cells were taken from culture substrate with 0.05% trypsin-0.02% EDTA and plated at a density of 5×10^3 cells/well in 96 well plates and then incubated at 37° C. for 24 h in a humidified atmosphere with 5% CO2 prior to treatment of various concentration (three fold serial dilution, 12 points) of test compounds. The A357P cell viability was assessed by the conventional 3-(4,5-dimethylthiazol-2-yl)-2,5-diphenyltetrazolium bromide (MTT) reduction assay. MTT assays were carried out with CellTiter 96 (Promega) according to the manufacturer's instructions.
After 1 day, 0.5 μl the representative compounds of the examples were added thereto. The representative compounds of the examples were prepared by three fold serial dilution of 10 mM stock solution in DMSO, 12 point (final conc. DMSO 0.5%). Then, 15 μl dye was added in each well. After 2 h, 100 μl stop solution was added each well. After 24 h, absorbance was measured. The absorbance at 590 nm was recorded using EnVision2103 (PerkinElmer; Boston, Mass., US). The IC50 value was calculated using GraphPad Prism 4.0 software.

SMILES	GI50 [µM]
CCOC(=O)c1n[nH]c2cc(-c3ccc(NC(=O)Nc4cccc(C(F)(F)F)c4)cc3)ccc12 [Example 23, ethyl 6-(4-(3-(3-(trifluoromethyl)phenyl)ureido)phenyl)-1H-indazole-3-carboxylate]	< 10
CNC(=O)c1n[nH]c2cc(-c3ccc(NC(=O)c4cc5ccccc5s4)cc3)ccc12 [Example 27, 6-(4-(benzo[b]thiophene-2-carboxamido)phenyl)-N-methyl-1H-indazole-3-carboxamide]	< 10
O=C(Nc1ccc(-c2ccc3c(C(=O)NCCN4CCOCC4)n[nH]c3c2)cc1)c1cc2ccccc2s1 [Example 32, 6-(4-(benzo[b]thiophene-2-carboxamido)phenyl)-N-(2-morpholinoethyl)-1H-indazole-3-carboxamide]	< 10
CNC(=O)c1n[nH]c2cc(-c3ccc(NC(=O)c4ccc(-c5ccc(OC)cc5)o4)cc3)ccc12 [Example 25, 6-(4-(5-(4-methoxyphenyl)furan-2-carboxamido)phenyl)-N-methyl-1H-indazole-3-carboxamide]	< 10
CCOC(=O)c1n[nH]c2cc(-c3ccc(NC(=O)c4ccncc4Cl)cc3)ccc12 [Example 13, ethyl 6-(4-(3-chloroisonicotinamido)phenyl)-1H-indazole-3-carboxylate]	< 10
CNC(=O)c1n[nH]c2cc(-c3ccc(NC(=O)c4ccc(Br)s4)cc3)ccc12 [Example 26, 6-(4-(5-bromothiophene-2-carboxamido)phenyl)-N-methyl-1H-indazole-3-carboxamide]	< 10
CCOC(=O)c1n[nH]c2cc(-c3ccc(NC(=O)Nc4cc(C(F)(F)F)cc(C(F)(F)F)c4)cc3)ccc12 [Example 22, ethyl 6-(4-(3-(3,5-bis(trifluoromethyl)phenyl)ureido)phenyl)-1H-indazole-3-carboxylate]	< 10
CCOC(=O)c1n[nH]c2cc(-c3ccc(NC(=O)c4cccc(C(F)(F)F)c4)cc3)ccc12 [Example 2, ethyl 6-(4-(3-(trifluoromethyl)benzamido)phenyl)-1H-indazole-3-carboxylate]	< 10
COc1ccc(-n2ncc(C(=O)Nc3ccc(-c4ccc5c(C(=O)NCCN6CCOCC6)n[nH]c5c4)cc3)c2C(F)(F)F)cc1 [Example 34, 6-(4-(1-(4-methoxyphenyl)-5-(trifluoromethyl)-1H-pyrazole-4-carboxamido)phenyl)-N-(2-morpholinoethyl)-1H-indazole-3-carboxamide]	< 10
O=C(Nc1ccc(-c2ccc3c(C(=O)NCCN4CCOCC4)n[nH]c3c2)cc1)c1cccc(C(F)(F)F)c1 [Example 30, N-(2-morpholinoethyl)-6-(4-(3-(trifluoromethyl)benzamido)phenyl)-1H-indazole-3-carboxamide]	< 10
CCOC(=O)c1n[nH]c2cc(-c3ccc(NC(=O)Cc4ccc(OC)c(OC)c4)cc3)ccc12 [Example 11, ethyl 6-(4-(2-(3,4-dimethoxyphenyl)acetamido)phenyl)-1H-indazole-3-carboxylate]	< 10
CCOC(=O)c1n[nH]c2cc(-c3ccc(NC(=O)c4ccc(OC)c5ccc(OC)cc45)cc3)ccc12 [Example 15, ethyl 6-(4-(4,7-dimethoxy-1-naphthamido)phenyl)-1H-indazole-3-carboxylate]	< 10
CCOC(=O)c1n[nH]c2cc(-c3ccc(NC(=O)Nc4ccc(Cl)c(Cl)c4)cc3)ccc12 [Example 20, ethyl 6-(4-(3-(3,4-dichlorophenyl)ureido)phenyl)-1H-indazole-3-carboxylate]	< 10
Cc1cc(C(=O)Nc2ccc(-c3ccc4c(C(=O)NCCN5CCOCC5)n[nH]c4c3)cc2)c(C)o1 [Example 33, 6-(4-(2,5-dimethylfuran-3-carboxamido)phenyl)-N-(2-morpholinoethyl)-1H-indazole-3-carboxamide]	< 10

Now from value to molecule:

GI50 [µM]	SMILES
< 10	O=C(Nc1cccc(-c2ccc3c(C(=O)NCCN4CCOCC4)n[nH]c3c2)c1)c1cc(N2CCC(O)CC2)cc(C(F)(F)F)c1 [Example 77, 6-(3-(3-(4-hydroxypiperidin-1-yl)-5-(trifluoromethyl)benzamido)phenyl)-N-(2-morpholinoethyl)-1H-indazole-3-carboxamide]
< 10	CCOC(=O)c1n[nH]c2cc(-c3cccc(NC(=O)c4cc(C)on4)c3)ccc12 [Example 46, ethyl 6-(3-(5-methylisoxazole-3-carboxamido)phenyl)-1H-indazole-3-carboxylate]
< 10	COC(=O)c1n[nH]c2ccc(-c3ccc(NC(=O)Nc4ccc(Cl)c(C(F)(F)F)c4)cc3)cc12 [Example 43, methyl 5-(4-(3-(4-chloro-3-(trifluoromethyl)phenyl)ureido)phenyl)-1H-indazole-3-carboxylate]
< 10	CCOC(=O)c1n[nH]c2cc(-c3cccc(NC(=O)c4cc5ccccc5s4)c3)ccc12 [Example 47, ethyl 6-(3-(benzo[b]thiophene-2-carboxamido)phenyl)-1H-indazole-3-carboxylate]
< 10	CCOC(=O)c1n[nH]c2cc(-c3cccc(NC(=O)Nc4ccc(CN5CCN(CC)CC5)c(C(F)(F)F)c4)c3)ccc12 [Example 69, ethyl 6-(3-(3-(4-((4-ethylpiperazin-1-yl)methyl)-3-(trifluoromethyl)phenyl)ureido)phenyl)-1H-indazole-3-carboxylate]
< 10	CCOC(=O)c1n[nH]c2cc(-c3cccc(NS(=O)(=O)c4cccc(C(F)(F)F)c4)c3)ccc12 [Example 68, ethyl 6-(3-(3-(trifluoromethyl)phenylsulfonamido)phenyl)-1H-indazole-3-carboxylate]
< 10	CCNC(=O)c1n[nH]c2cc(-c3cccc(NC(=O)Nc4ccc(C)cc4C)c3)ccc12 [Example 63, 6-(3-(3-(2,4-dimethylphenyl)ureido)phenyl)-N-ethyl-1H-indazole-3-carboxamide]
< 10	CCOC(=O)c1n[nH]c2cc(-c3cc(NC(=O)Nc4ccc(N5CCN(C)CC5)c(C(F)(F)F)c4)ccc3C)ccc12 [Example 71, ethyl 6-(2-methyl-5-(3-(4-(4-methylpiperazin-1-yl)-3-(trifluoromethyl)phenyl)ureido)phenyl)-1H-indazole-3-carboxylate]
< 10	Cc1ccc(NC(=O)c2cccc(C(F)(F)F)c2)cc1-c1ccc2c(C(=O)NCCN3CCOCC3)n[nH]c2c1 [Example 67, 6-(2-methyl-5-(3-(trifluoromethyl)benzamido)phenyl)-N-(2-morpholinoethyl)-1H-indazole-3-carboxamide]
< 10	O=C(Nc1cccc(-c2ccc3c(C(=O)NCCN4CCOCC4)n[nH]c3c2)c1)c1cc(N2CCOCC2)cc(C(F)(F)F)c1 [Example 59, 6-(3-(3-morpholino-5-(trifluoromethyl)benzamido)phenyl)-N-(2-morpholinoethyl)-1H-indazole-3-carboxamide]
< 10	CNC(=O)c1n[nH]c2cc(-c3ccc(NC(=O)c4ccc(OC5CCN(C)CC5)c(C(F)(F)F)c4)cc3)ccc12 [Example 40, N-methyl-6-(4-(4-(1-methylpiperidin-4-yloxy)-3-(trifluoromethyl)benzamido)phenyl)-1H-indazole-3-carboxamide]
< 10	CCNC(=O)c1n[nH]c2cc(-c3cccc(NC(=O)Nc4cccc(Cl)c4Cl)c3)ccc12 [Example 61, 6-(3-(3-(2,3-dichlorophenyl)ureido)phenyl)-N-ethyl-1H-indazole-3-carboxamide]
< 10	O=C(Nc1ccc(-c2ccc3[nH]nc(C(=O)NCCN4CCOCC4)c3c2)cc1)Nc1ccc(Cl)c(C(F)(F)F)c1 [Example 72, 5-(4-(3-(4-chloro-3-(trifluoromethyl)phenyl)ureido)phenyl)-N-(2-morpholinoethyl)-1H-indazole-3-carboxamide]
< 10	O=C(Nc1ccc(-c2ccc3c(C(=O)Nc4cccc(C(F)(F)F)c4)n[nH]c3c2)cc1)c1ccc(Br)s1 [Example 35, 6-(4-(5-bromothiophene-2-carboxamido)phenyl)-N-(3-(trifluoromethyl)phenyl)-1H-indazole-3-carboxamide]
< 10	CNC(=O)c1n[nH]c2cc(-c3cc(NC(=O)Nc4cc(-n5cnc(C)c5)cc(C(F)(F)F)c4)ccc3C)ccc12 [Example 75, N-methyl-6-(2-methyl-5-(3-(3-(4-methyl-1H-imidazol-1-yl)-5-(trifluoromethyl)phenyl)ureido)phenyl)-1H-indazole-3-carboxamide]
< 10	CNC(=O)c1n[nH]c2cc(-c3ccc(NC(=O)c4cc(-n5cnc(C)c5)cc(C(F)(F)F)c4)cc3)ccc12 [Example 39, N-methyl-6-(4-(3-(4-methyl-1H-imidazol-1-yl)-5-(trifluoromethyl)benzamido)phenyl)-1H-indazole-3-carboxamide]
< 10	COC(=O)c1n[nH]c2cc(-c3cccc(NC(=O)Nc4ccc(C)cc4C)c3)ccc12 [Example 56, methyl 6-(3-(3-(2,4-dimethylphenyl)ureido)phenyl)-1H-indazole-3-carboxylate]
< 10	O=C(Nc1cccc(-c2ccc3c(C(=O)NCCN4CCOCC4)n[nH]c3c2)c1)Nc1cccc(Cl)c1Cl [Example 60, 6-(3-(3-(2,3-dichlorophenyl)ureido)phenyl)-N-(2-morpholinoethyl)-1H-indazole-3-carboxamide]
< 10	CCOC(=O)c1n[nH]c2cc(-c3cccc(NC(=O)c4ccc(Br)s4)c3)ccc12 [Example 49, ethyl 6-(3-(5-bromothiophene-2-carboxamido)phenyl)-1H-indazole-3-carboxylate]
